# Data taken from patent US9169254B2, “Spiroimidazolone derivative” (Chugai Seiyaku Kabushiki Kaisha, priority 2009, dated 2015).
# Molecular target: T1, human PTH1 receptor (Homo sapiens, UniProt Q03431)
# T1 sequence (Q03431 27-593): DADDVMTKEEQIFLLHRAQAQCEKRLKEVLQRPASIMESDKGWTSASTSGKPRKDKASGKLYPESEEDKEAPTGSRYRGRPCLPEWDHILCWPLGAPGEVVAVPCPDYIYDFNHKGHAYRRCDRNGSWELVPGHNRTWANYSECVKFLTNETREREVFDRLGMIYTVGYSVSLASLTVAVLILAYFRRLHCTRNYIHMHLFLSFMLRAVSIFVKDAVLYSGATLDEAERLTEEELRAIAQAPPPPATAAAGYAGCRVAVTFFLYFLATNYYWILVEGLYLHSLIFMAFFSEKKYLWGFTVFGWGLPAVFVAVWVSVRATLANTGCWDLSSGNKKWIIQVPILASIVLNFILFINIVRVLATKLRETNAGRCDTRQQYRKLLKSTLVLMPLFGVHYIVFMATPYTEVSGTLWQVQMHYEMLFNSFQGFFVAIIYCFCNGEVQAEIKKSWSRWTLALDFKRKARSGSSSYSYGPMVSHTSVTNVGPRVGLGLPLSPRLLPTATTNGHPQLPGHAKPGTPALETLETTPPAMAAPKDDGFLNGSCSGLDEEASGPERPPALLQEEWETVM
# Experiment: In vitro cAMP signal activity in HKRK-B7 cells (LLC-PK1 cells overexpressing the human PTH1 receptor)
# Format: cell-based
# Conditions: HKRK-B7 cells; compound at 1×10^−3 M; cAMP produced as percentage of that produced by hPTH(1-34) at 100 nM
row,SMILES,cAMP production activity (%)
1,"CC(=CS(=O)(=O)N1CCC2(CC1)N=C(C1CCC(C)CC1)NC2=O)c1c(C)cc(N(C)C(N)=O)cc1C (centres unmarked) [Compound 741, 1-(3,5-dimethyl-4-{1-methyl-2-[2-(4-methyl-cyclohexyl)-4-oxo-1,3,8-triaza-spiro[4.5]dec-1-ene-8-sulfonyl]-vinyl}-phenyl)-1-methyl-urea]",91
2,"Cc1cc(NS(N)(=O)=O)ccc1/C=C/S(=O)(=O)N1CCC2(CC1)N=C(c1cccc(OC(F)(F)F)c1)NC2=O [Compound 742, N-(3-Methyl-4-{(E)-2-[4-oxo-2-(3-trifluoromethoxy-phenyl)-1,3,8-triaza-spiro[4.5]dec-1-ene-8-sulfonyl]-vinyl}-phenyl)-sulfamide]",50
3,"Cc1cc(NS(=O)(=O)NCCCO)ccc1/C=C/S(=O)(=O)N1CCC2(CC1)N=C(c1cccc(OC(F)(F)F)c1)NC2=O [Compound 743, N-(3-Hydroxy-propyl)-N′-(3-methyl-4-{(E)-2-[4-oxo-2-(3-trifluoromethoxy-phenyl)-1,3,8-triaza-spiro[4.5]dec-1-ene-8-sulfonyl]-vinyl}-phenyl)-sulfamide]",54
4,"CC(=O)N(C)c1ccc(/C=C/CS(=O)(=O)N2CCC3(CC2)N=C(C2CCC(C)CC2)NC3=O)c(C)c1 (centres unmarked) [Compound 744, N-Methyl-N-(3-methyl-4-{(E)-3-[2-(4-methyl-cyclohexyl)-4-oxo-1,3,8-triaza-spiro[4.5]dec-1-ene-8-sulfonyl]-propenyl}-phenyl)-acetamide]",19
5,"Cc1cc2c(CCS(=O)(=O)N3CCC4(CC3)N=C(C3CCCCC3)NC4=O)cccc2[nH]1 [Compound 745, 2-Cyclohexyl-8-[2-(2-methyl-1H-indol-4-yl)-ethanesulfonyl]-1,3,8-triaza-spiro[4.5]dec-1-en-4-one]",67
6,"O=C1NC(c2cccc(OC(F)(F)F)c2)=NC12CCN(S(=O)(=O)CCc1cccc3c1ccn3C[C@H](O)CO)CC2 [Compound 746, 8-{2-[1-((S)-2,3-dihydroxy-propyl)-1H-indol-4-yl]-ethanesulfonyl}-2-(3-trifluoromethoxy-phenyl)-1,3,8-triaza-spiro[4.5]dec-1-en-4-one]",120
7,"CN1CCCc2c(CCS(=O)(=O)N3CCC4(CC3)N=C(C3CCCCC3)NC4=O)cccc21 [Compound 747, 2-cyclohexyl-8-[2-(1-methyl-1,2,3,4-tetrahydro-quinolin-5-yl)-ethanesulfonyl]-1,3,8-triaza-spiro[4.5]dec-1-en-4-one]",55
8,"O=C1NC(C2CCCCC2)=NC12CCN(S(=O)(=O)CCc1cccc3c1ccn3CCC(O)CO)CC2 (centres unmarked) [Compound 748, 2-cyclohexyl-8-{2-[1-(3,4-dihydroxy-butyl)-1H-indol-4-yl]-ethanesulfonyl}-1,3,8-triaza-spiro[4.5]dec-1-en-4-one]",61
9,"Cc1cc(CCS(=O)(=O)N2CCC3(CC2)N=C(C2CCC(C)CC2)NC3=O)cc(C)c1N1C(=O)CNC1=O (centres unmarked) [Compound 749, 3-(2,6-dimethyl-4-{2-[2-(4-methyl-cyclohexyl)-4-oxo-1,3,8-triaza-spiro[4.5]dec-1-ene-8-sulfonyl]-ethyl}-phenyl)-imidazolidine-2,4-dione]",77
10,"Cc1cc(CC(N)=O)ccc1CCS(=O)(=O)N1CCC2(CC1)N=C(C1CCC(C)CC1)NC2=O (centres unmarked) [Compound 750, 2-(3-Methyl-4-{2-[2-(4-methyl-cyclohexyl)-4-oxo-1,3,8-triaza-spiro[4.5]dec-1-ene-8-sulfonyl]-ethyl}-phenyl)-acetamide]",87
11,"CCOc1cc(NC(C)=O)ccc1CCS(=O)(=O)N1CCC2(CC1)N=C(C1CCC(C)CC1)NC2=O (centres unmarked) [Compound 751, N-(3-ethoxy-4-{2-[2-(4-methyl-cyclohexyl)-4-oxo-1,3,8-triaza-spiro[4.5]dec-1-ene-8-sulfonyl]-ethyl}-phenyl)-acetamide]",83
12,"CCc1cc(NC(C)=O)ccc1CCS(=O)(=O)N1CCC2(CC1)N=C(C1CCC(C)CC1)NC2=O (centres unmarked) [Compound 752, N-(3-ethyl-4-{2-[2-(4-methyl-cyclohexyl)-4-oxo-1,3,8-triaza-spiro[4.5]dec-1-ene-8-sulfonyl]-ethyl}-phenyl)-acetamide]",79
13,"CCOCc1cc(NC(C)=O)ccc1CCS(=O)(=O)N1CCC2(CC1)N=C(C1CCC(C)CC1)NC2=O (centres unmarked) [Compound 753, N-(3-ethoxymethyl-4-{2-[2-(4-methyl-cyclohexyl)-4-oxo-1,3,8-triaza-spiro[4.5]dec-1-ene-8-sulfonyl]-ethyl}-phenyl)-acetamide]",104
14,"COCc1cc(NC(C)=O)ccc1CCS(=O)(=O)N1CCC2(CC1)N=C(C1CCC(C)CC1)NC2=O (centres unmarked) [Compound 754, N-(3-methoxymethyl-4-{2-[2-(4-methyl-cyclohexyl)-4-oxo-1,3,8-triaza-spiro[4.5]dec-1-ene-8-sulfonyl]-ethyl}-phenyl)-acetamide]",89
15,"COCCN(C(C)=O)c1ccc(CCS(=O)(=O)N2CCC3(CC2)N=C(C2CCC(CCC(F)(F)F)CC2)NC3=O)c(C)c1 (centres unmarked) [Compound 755, N-(2-methoxy-ethyl)-N-[3-methyl-4-(2-{4-oxo-2-[4-(3,3,3-trifluoro-propyl)-cyclohexyl]-1,3,8-triaza-spiro[4.5]dec-1-ene-8-sulfonyl}-ethyl)-phenyl]-acetamide]",74
16,"COCCN(C(C)=O)c1cc(C)c(CCS(=O)(=O)N2CCC3(CC2)N=C(C2CCC(CCC(F)(F)F)CC2)NC3=O)c(C)c1 (centres unmarked) [Compound 756, N-[3,5-dimethyl-4-(2-{4-oxo-2-[4-(3,3,3-trifluoro-propyl)-cyclohexyl]-1,3,8-triaza-spiro[4.5]dec-1-ene-8-sulfonyl}-ethyl)-phenyl]-N-(2-methoxy-ethyl)-acetamide]",79
17,"CC(=O)N(CCOCCF)c1ccc(CCS(=O)(=O)N2CCC3(CC2)N=C(C2CCC(CCC(F)(F)F)CC2)NC3=O)c(C)c1 (centres unmarked) [Compound 757, N-[2-(2-fluoro-ethoxy)-ethyl]-N-[3-methyl-4-(2-{4-oxo-2-[4-(3,3,3-trifluoro-propyl)-cyclohexyl]-1,3,8-triaza-spiro[4.5]dec-1-ene-8-sulfonyl}-ethyl)-phenyl]-acetamide]",79
18,"CC(=O)N(CCOCCO)c1ccc(CCS(=O)(=O)N2CCC3(CC2)N=C(C2CCC(CCC(F)(F)F)CC2)NC3=O)c(C)c1 (centres unmarked) [Compound 758, N-[2-(2-hydroxy-ethoxy)-ethyl]-N-[3-methyl-4-(2-{4-oxo-2-[4-(3,3,3-trifluoro-propyl)-cyclohexyl]-1,3,8-triaza-spiro[4.5]dec-1-ene-8-sulfonyl}-ethyl)-phenyl]-acetamide]",98
19,"CC(=O)N(C)c1cc(C)c(CCS(=O)(=O)N2CCC3(CC2)N=C(C2CCC(CCC(F)(F)F)CC2)NC3=O)c(C)c1 (centres unmarked) [Compound 759, N-[3,5-dimethyl-4-(2-{4-oxo-2-[4-(3,3,3-trifluoro-propyl)-cyclohexyl]-1,3,8-triaza-spiro[4.5]dec-1-ene-8-sulfonyl}-ethyl)-phenyl]-N-methyl-acetamide]",79
20,"Cc1cc(N2C(=O)CN(C)C2=O)cc(C)c1CCS(=O)(=O)N1CCC2(CC1)N=C(C1CCC(CCC(F)(F)F)CC1)NC2=O (centres unmarked) [Compound 760, 3-[3,5-dimethyl-4-(2-{4-oxo-2-[4-(3,3,3-trifluoro-propyl)-cyclohexyl]-1,3,8-triaza-spiro[4.5]dec-1-ene-8-sulfonyl}-ethyl)-phenyl]-1-methyl-imidazolidine-2,4-dione]",93
21,"Cc1cc(C(=O)N2CCN(CCF)CC2)cc(C)c1CCS(=O)(=O)N1CCC2(CC1)N=C(C1CCC(CCC(F)(F)F)CC1)NC2=O (centres unmarked) [Compound 761, 8-(2-{4-[4-(2-fluoro-ethyl)-piperazine-1-carbonyl]-2,6-dimethyl-phenyl}-ethanesulfonyl)-2-[4-(3,3,3-trifluoro-propyl)-cyclohexyl]-1,3,8-triaza-spiro[4.5]dec-1-en-4-one]",104
22,"Cc1cc(N2CCOCC2=O)cc(C)c1CCS(=O)(=O)N1CCC2(CC1)N=C(C1CCC(CCC(F)(F)F)CC1)NC2=O (centres unmarked) [Compound 764, 8-{2-[2,6-dimethyl-4-(3-oxo-morpholin-4-yl)-phenyl]-ethanesulfonyl}-2-[4-(3,3,3-trifluoro-propyl)-cyclohexyl]-1,3,8-triaza-spiro[4.5]dec-1-en-4-one]",124
23,"Cc1cc(N2CCOCC2=O)cc(C)c1CCS(=O)(=O)N1CCC2(CC1)N=C(C1CCC(C)CC1)NC2=O (centres unmarked) [Compound 765, 8-{2-[2,6-dimethyl-4-(3-oxo-morpholin-4-yl)-phenyl]-ethanesulfonyl}-2-(4-methyl-cyclohexyl)-1,3,8-triaza-spiro[4.5]dec-1-en-4-one]",101
